Results: article PMC6348443 (Journal of Medicinal Chemistry, 2018)
Structures can show the parent of a compound that is named as a salt. Where two headings read alike, the source gives them in different places.

Columns and labels:
MOR [1] = molecular target: T1, MOR (Homo sapiens, UniProt P35372); test: [35S]GTPγS binding assay, CHO-hMOR membranes; type: biochemical; conditions: for Emax: relative to reference full agonist DAMGO, read-out: MOR % stim.
T1 construct: host or cells: CHO (CHO-hMOR)
Description: (§1) Efficacies are presented as percentage stimulation relative to the standard full agonists, [D-Ala^2,N-Me-Phe4,Gly-ol^5]enkephalin (DAMGO for MOR),[53] [D-Pen^2,D-Pen^5]enkephalin (DPDPE for DOR)[54] and N-methyl-2-phenyl-N-[(5R,7S,8S)-7-(pyrrolidin-1-yl)-1-oxaspiro[4.5]dec-8-yl]acetamide (U69,593 for KOR).[55]
(§2) Membranes from CHO cells expressing human opioid receptors were prepared in 50 mM Tris-HCl buffer (pH 7.7) according to a previously described procedure.[64] Cells expressing human opioid receptors grown at confluence were removed from the culture plates by scraping, homogenized in 50 mM Tris buffer (pH 7.7), using a Polytron homogenizer, then centrifuged once and washed by an additional centrifugation at 27 000g for 15 min, at 4 °C. The final pellet was resuspended in Tris buffer and stored at −80 °C until use. Protein content of brain and cell membrane preparation homogenates was determined by the method of Bradford using bovine serum albumin as the standard.[65]
(§3) Binding of [^35S]GTPγS to membranes from CHO cells stably expressing the human opioid receptors was conducted according to the published procedures.[49],[64] Cell membranes (5–10 μg) in 20 mM HEPES, 10 mM MgCl2, and 100 mM NaCl (pH 7.4) were incubated with 0.05 nM [^35S]GTPγS, 10 μM GDP, and various concentrations of test compound in a final volume of 1 mL, for 60 min at 25 °C. Nonspecific binding was determined using 10 μM GTPγS, and the basal binding was determined in the absence of test ligand. Samples are filtered over glass Whatman glass GF/B fiber filters and counted as described for binding assays. All experiments were performed in duplicate and repeated at least three times.
(§4) Data were analyzed and graphically processed using the GraphPad Prism 5.0 Software (GraphPad Prism Software Inc., San Diego, CA). For in vitro assays, inhibition constant (Ki in nM), potency (EC50 in nM), and efficacy (% stimulation) values were determined from concentration–response curves by nonlinear regression analysis. The Ki values were determined by the method of Cheng and Prusoff.[66] In the [^35S]GTPγS binding assays, efficacy was determined relative to the reference full opioid agonists, DAMGO (MOR), DPDPE (DOR), and U69,593 (KOR). In vitro data are presented as mean ± SEM of three to four independent experiments each performed in duplicate. […] Each experimental group included six to seven mice. Data were statistically evaluated using one-way ANOVA with Tukey’s post hoc test for multiple comparisons with significance set at P < 0.05.

DOR [2] = molecular target: T2, DOR (Homo sapiens, UniProt P41143); test: [35S]GTPγS binding assay, CHO-hDOR membranes; type: biochemical; conditions: for EC50: [35S]GTPγS, CHO human DOR membranes; for Emax: relative to reference full agonist DPDPE, read-out: DOR % stim.; for increased agonist potency at DOR vs MOR: [35S]GTPγS EC50
T2 construct: host or cells: CHO (CHO-hDOR)
Description: as §1, §2, §3, §4

KOR [3] = molecular target: T3, KOR (Homo sapiens, UniProt P41145); test: [35S]GTPγS binding assay, CHO-hKOR membranes; type: biochemical; conditions: for EC50: [35S]GTPγS, CHO human KOR membranes, read-out: KOR EC50; for Emax: relative to reference full agonist U69,593, read-out: KOR % stim.
T3 construct: host or cells: CHO (CHO-hKOR)
Description: as §1, §2, §3, §4

KOR [4] = molecular target: T4, KOR (Cavia porcellus, UniProt P41144); test: competition radioligand binding, guinea-pig brain membranes, [3H]U69,593; conditions: guinea-pig brain membranes; read-out: opioid receptor binding Ki KOR
T4 construct: Membranes were prepared from Sprague-Dawley rat brains or guinea-pig brains according to the described procedures; tissue Labortierkunde und Laborgenetik, Medizinische Universität Wien; host or cells: guinea-pig brain without cerebella
Description: (§5) Competition binding assays using rat brain (MOR and DOR) and guinea-pig brain (KOR) membranes (Table 1) were performed according to published procedures.[44],[49] […] In addition, we have assessed binding at the human opioid receptors stably transfected in Chinese hamster ovary (CHO) cells (Table S1).
(§6) Membranes were prepared from Sprague-Dawley rat brains or guinea-pig brains according to the described procedures.[44],[45] Brains without cerebella were homogenized on ice in 5 vol/wt of ice-cold 50 mM Tris-HCl buffer (pH 7.4) and diluted in 30 vol/wt of the same buffer. After centrifugation at 40 000g for 20 min at 4 °C, the pellets were resuspended in 30 vol/wt of 50 mM Tris-HCl buffer (pH 7.4) and incubated at 37 °C for 30 min. The centrifugation step described above was repeated, and the final pellets were resuspended in 5 vol/wt of 50 mM Tris-HCl buffer (pH 7.4) containing 0.32 M sucrose and stored at −80 °C until use.
(§7) Rat brain membranes were incubated with either [^3H]DAMGO (1 nM, 45 min, 35 °C) or [^3H][Ile^5,6]deltorphin II (0.5 nM, 45 min, 35 °C) for labeling MOR or DOR receptors, respectively. Guinea-pig brain membranes were incubated with [^3H]U69,593 (1 nM, 30 min, 30 °C) for labeling KOR. Binding assays with CHO cell membranes were conducted at 25 °C for 60 min using [^3H]DAMGO (1 nM) or [^3H]diprenorphine (0.2 nM) for labeling MOR or DOR, respectively. Nonspecific binding was determined using 10 μM naloxone (rodent brain) or 1–10 μM of the unlabeled counterpart of each radioligand (CHO cells). Reactions were terminated by rapid filtration through Whatman glass fiber GF/C filters. Filters were washed three times with 5 mL of ice-cold 50 mM Tris-HCl buffer (pH 7.4) using a Brandel M24R cell harvester (Gaithersburg, MD). Radioactivity retained on the filters was counted by liquid scintillation counting using a Beckman Coulter LS6500 (Beckman Coulter Inc., Fullerton, CA). All binding experiments were performed in duplicate and repeated at least three times.
as §4

MOR [5] = molecular target: T5, MOR (Rattus norvegicus, UniProt P33535); test: competition radioligand binding, rat brain membranes, [3H]DAMGO; conditions: rat brain membranes; read-out: opioid receptor binding Ki MOR
T5 construct: Membranes were prepared from Sprague-Dawley rat brains or guinea-pig brains according to the described procedures; tissue Labortierkunde und Laborgenetik, Medizinische Universität Wien; host or cells: Sprague-Dawley rat brain without cerebella
Description: as §5, §6, §7, §4

DOR [6] = molecular target: T6, DOR (Rattus norvegicus, UniProt P33533); test: competition radioligand binding, rat brain membranes, [3H][Ile5,6]deltorphin II; conditions: rat brain membranes; read-out: opioid receptor binding Ki DOR
T6 construct: Membranes were prepared from Sprague-Dawley rat brains or guinea-pig brains according to the described procedures; tissue Labortierkunde und Laborgenetik, Medizinische Universität Wien; host or cells: Sprague-Dawley rat brain without cerebella
Description: as §5, §6, §7, §4

male CD1 mice = test: acetic acid-induced writhing assay after sc administration; type: in vivo, mouse; conditions: for ED50: Mus musculus, 0.5 h, read-out: ED50 (95% CI), mice, sc, inhibition of writhing 30 min after drug administration; for ED50 (95% CI): mice, inhibition of writhing 30 min after drug administration
Description: Solutions of test compounds were prepared in sterile physiological 0.9% saline and further diluted to working doses in saline solution. Test compounds or saline (control) were administered by sc route in a volume of 10 μL/1 g of body weight. All doses are expressed in terms of salts. Separate groups of mice received the respective dose of compound, and individual mice were only used once for behavioral testing.
Writhing was induced in male CD1 mice by ip injection of a 0.6% acetic acid aqueous solution as described previously.[48],[62] Groups of mice were administered sc different doses of test compound or saline (control), and 5 min prior to testing (25 min after drug or saline), each animal received an ip injection of acetic acid solution. Each mouse was placed in individual transparent Plexiglas chambers, and the number of writhes was counted during a 10 min observation period. […] For the antagonism study, naloxone methiodide was sc co-administered with the respective opioid agonist, and writhing was assessed as described above.
as §4

[7] = [35S]GTPγS, CHO human MOR membranes, read-out: MOR EC50

Structure (SMILES)	EC50 (MOR [1]; [7])	Emax (MOR [1])	EC50 (DOR [2])	Emax (DOR [2])	EC50 (KOR [3])	Emax (KOR [3])	Ki (KOR [4])	Ki (MOR [5])	increased agonist potency at DOR vs MOR (DOR [2])	Ki (DOR [6])	EC50 (MOR [1])	ED50 (male CD1 mice)	ED50 (95% CI) (male CD1 mice)	functional profile at MOR (full/partial agonist) (MOR [1]; full agonist ≥85% of the response to DAMGO)	functional profile at KOR (full/partial agonist) (KOR [3]; partial agonist <85% of the response to U69,593)
CO[C@@]12CC[C@@H](N[C@@H](CC(N)=O)C(=O)O)[C@@H]3Oc4c(O)ccc5c4[C@@]31CCN(C)[C@@H]2C5 [Compound 11b, (2S)-3-Carbamoyl-2-[(4,5α-epoxy-3-hydroxy-14β-methoxy-17-methylmorphinan-6β-yl)amino]propionic Acid Dihydrochloride]	2.04 ± 0.44 nM	96 ± 14%	3.18 ± 0.93 nM	88 ± 5%	923 ± 11 nM	71 ± 9%	–	–	–	–	–	–	–	–	–
CO[C@@]12CC[C@@H](N[C@@H](Cc3ccc(O)cc3)C(=O)O)[C@@H]3Oc4c(O)ccc5c4[C@@]31CCN(C)[C@@H]2C5.Cl.Cl [Compound 9b, (2S)-2-[(4,5α-Epoxy-3-hydroxy-14β-methoxy-17-methylmorphinan-6β-yl)amino]-3-(4-hydroxyphenyl)propionic Acid Dihydrochloride]	24.7 ± 9.8 nM	93 ± 7%	6.23 ± 1.03 nM	95 ± 0.8%	774 ± 57 nM	60 ± 3%	186 ± 33 nM	3.2 ± 0.55 nM	2–4 times	3.89 ± 0.64 nM	–	–	–	–	–
CO[C@@]12CC[C@H](N[C@@H](CC(N)=O)C(=O)O)[C@@H]3Oc4c(O)ccc5c4[C@@]31CCN(C)[C@@H]2C5 [Compound 11a, (2S)-3-Carbamoyl-2-[(4,5α-epoxy-3-hydroxy-14β-methoxy-17-methylmorphinan-6α-yl)amino]propionic Acid Dihydrochloride]	0.83 ± 0.17 nM	99 ± 0.2%	9.78 ± 3.32 nM	106 ± 6%	81.7 ± 12.3 nM	67 ± 12%	–	–	–	–	< 1 nM	< 0.02 mg/kg	15.2 (6.89–33.3) μg/kg	–	–
CN1CC[C@]23c4c5ccc(O)c4O[C@H]2[C@@H](NCC(=O)O)CC[C@@]3(OCCCc2ccccc2)[C@H]1C5 [Compound 5a]	–	–	–	–	–	–	–	–	–	–	–	0.0361 mg/kg	–	–	–
CN1CC[C@]23c4c5ccc(O)c4O[C@H]2[C@@H](O)C=C[C@H]3[C@H]1C5 [morphine, reference compound]	–	–	–	–	–	–	–	–	–	–	–	–	437 (249–768) μg/kg	–	–
CO[C@@]12CC[C@@H](N[C@@H](CC(=O)O)C(=O)O)[C@@H]3Oc4c(O)ccc5c4[C@@]31CCN(C)[C@@H]2C5 [Compound 13b, (2S)-2-[(4,5α-Epoxy-3-hydroxy-14β-methoxy-17-methylmorphinan-6β-yl)amino]butanedioic Acid Dihydrochloride]	1.45 ± 0.01 nM	~70%	11.8 ± 2.2 nM	101 ± 1%	753 ± 358 nM	49 ± 7%	351 ± 43 nM	3.42 ± 0.05 nM	–	22.6 ± 2.2 nM	–	–	–	partial agonists	–
CO[C@@]12CC[C@@H](N[C@@H](CCC(N)=O)C(=O)O)[C@@H]3Oc4c(O)ccc5c4[C@@]31CCN(C)[C@@H]2C5.Cl.Cl [Compound 12b, (2S)-4-Carbamoyl-2-[(4,5α-epoxy-3-hydroxy-14β-methoxy-17-methylmorphinan-6β-yl)amino]butanoic Acid Dihydrochloride]	9.54 ± 1.15 nM	98 ± 4%	3.96 ± 0.07 nM	103 ± 9%	1410 ± 418 nM	63 ± 17%	–	–	2–4 times	–	–	–	–	–	–
CO[C@@]12CC[C@H](N[C@@H](CCC(N)=O)C(=O)O)[C@@H]3Oc4c(O)ccc5c4[C@@]31CCN(C)[C@@H]2C5 [Compound 12a, (2S)-4-Carbamoyl-2-[(4,5α-epoxy-3-hydroxy-14β-methoxy-17-methylmorphinan-6α-yl)amino]butanoic Acid Dihydrochloride]	2.27 ± 0.11 nM	90 ± 8%	7.8 ± 3.61 nM	104 ± 10%	185 ± 30 nM	70 ± 3%	–	–	–	–	–	–	–	–	–
CN1CC[C@]23c4c5ccc(O)c4O[C@H]2[C@H](NCC(=O)O)CC[C@@]3(OCCCc2ccccc2)[C@H]1C5 [Compound 5b]	–	–	–	–	–	–	–	–	–	–	–	0.0416 mg/kg	–	–	–
CO[C@@]12CCC(=O)[C@@H]3Oc4c(O)ccc5c4[C@@]31CCN(C)[C@@H]2C5 [Compound 1, 14-O-methyloxymorphone, reference compound]	–	–	37.3 ± 8.5 nM	106 ± 1%	116 ± 31 nM	77 ± 5%	–	–	–	–	–	0.00326 mg/kg	–	–	–
CO[C@@]12CC[C@H](N[C@@H](CO)C(=O)O)[C@@H]3Oc4c(O)ccc5c4[C@@]31CCN(C)[C@@H]2C5 [Compound 6a, (2S)-2-[(4,5α-Epoxy-3-hydroxy-14β-methoxy-17-methylmorphinan-6α-yl)amino]-3-hydroxypropionic Acid Dihydrochloride]	1.6 ± 0.59 nM	87 ± 5%	13.9 ± 1.5 nM	101 ± 2%	1210 ± 200 nM	44 ± 5.2%	–	–	–	–	–	0.0321 mg/kg	–	–	–
CO[C@@]12CC[C@@H](N[C@@H](CO)C(=O)O)[C@@H]3Oc4c(O)ccc5c4[C@@]31CCN(C)[C@@H]2C5 [Compound 6b, (2S)-2-[(4,5α-Epoxy-3-hydroxy-14β-methoxy-17-methylmorphinan-6β-yl)amino]-3-hydroxypropionic Acid Dihydrochloride]	3.56 ± 0.76 nM	101 ± 9%	6.98 ± 4.24 nM	98 ± 1%	201 ± 116 nM	88 ± 2%	–	–	–	–	–	–	–	–	full agonists
